Test results as given in patent publication US20110082157A1, “Piperidinylamino-Thieno [2,3-D] Pyrimidine Compounds” (priority 2004, published 2011).
Like-named read-outs stand apart in the source and are kept apart here.

Legend:
D2S [1] = biological target: T1, D2S (Homo sapiens, UniProt P14416); test: D2S binding (Ki)
D3 = D3 (Homo sapiens, UniProt P35462); test: D3 binding (Ki)
5HT1A [2] = biological target: T2, 5HT1A (Homo sapiens, UniProt P08908); test: 5HT1A binding (Ki)
T2 sequence (P08908 1-422): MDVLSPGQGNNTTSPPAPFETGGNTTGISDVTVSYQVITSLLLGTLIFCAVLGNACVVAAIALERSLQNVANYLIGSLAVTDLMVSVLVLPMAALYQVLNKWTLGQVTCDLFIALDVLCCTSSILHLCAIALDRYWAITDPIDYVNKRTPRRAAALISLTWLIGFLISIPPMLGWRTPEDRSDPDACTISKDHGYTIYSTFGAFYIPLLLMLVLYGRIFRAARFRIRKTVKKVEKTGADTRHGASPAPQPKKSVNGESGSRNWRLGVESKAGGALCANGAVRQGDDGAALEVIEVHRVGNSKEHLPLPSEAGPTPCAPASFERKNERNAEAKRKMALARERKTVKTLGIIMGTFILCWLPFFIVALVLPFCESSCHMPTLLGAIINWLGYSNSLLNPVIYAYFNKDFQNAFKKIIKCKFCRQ

5HT2A [3] = biological target: T3, 5HT2A (Homo sapiens, UniProt P28223); test: 5HT2A binding (Ki)
T3 sequence (P28223 whole entry, species assumed): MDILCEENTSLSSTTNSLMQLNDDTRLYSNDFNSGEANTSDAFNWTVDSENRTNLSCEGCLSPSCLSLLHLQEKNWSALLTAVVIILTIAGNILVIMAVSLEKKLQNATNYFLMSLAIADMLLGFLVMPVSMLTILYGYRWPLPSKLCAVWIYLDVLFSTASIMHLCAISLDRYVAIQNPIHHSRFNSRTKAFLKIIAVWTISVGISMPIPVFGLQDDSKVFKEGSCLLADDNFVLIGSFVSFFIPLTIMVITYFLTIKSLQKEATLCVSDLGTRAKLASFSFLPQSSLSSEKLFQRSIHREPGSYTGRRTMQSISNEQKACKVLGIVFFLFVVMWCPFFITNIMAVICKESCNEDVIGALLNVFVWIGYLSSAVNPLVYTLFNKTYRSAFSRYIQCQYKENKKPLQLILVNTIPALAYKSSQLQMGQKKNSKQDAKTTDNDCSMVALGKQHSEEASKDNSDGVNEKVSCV

s 1 = s 1 (Homo sapiens, UniProt Q99720); test: s 1 binding (Ki)
Chain of s 1 (Q99720 whole entry): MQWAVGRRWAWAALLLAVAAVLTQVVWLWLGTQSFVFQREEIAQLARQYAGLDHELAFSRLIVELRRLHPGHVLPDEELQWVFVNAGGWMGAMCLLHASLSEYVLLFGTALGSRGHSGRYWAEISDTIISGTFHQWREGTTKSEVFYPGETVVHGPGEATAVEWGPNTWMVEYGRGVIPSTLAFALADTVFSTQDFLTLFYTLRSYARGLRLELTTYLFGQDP

D4.4 = biological target: T4, D4.4 (Homo sapiens, UniProt P21917); test: D4.4 binding (Ki)
T4 sequence (P21917 1-419): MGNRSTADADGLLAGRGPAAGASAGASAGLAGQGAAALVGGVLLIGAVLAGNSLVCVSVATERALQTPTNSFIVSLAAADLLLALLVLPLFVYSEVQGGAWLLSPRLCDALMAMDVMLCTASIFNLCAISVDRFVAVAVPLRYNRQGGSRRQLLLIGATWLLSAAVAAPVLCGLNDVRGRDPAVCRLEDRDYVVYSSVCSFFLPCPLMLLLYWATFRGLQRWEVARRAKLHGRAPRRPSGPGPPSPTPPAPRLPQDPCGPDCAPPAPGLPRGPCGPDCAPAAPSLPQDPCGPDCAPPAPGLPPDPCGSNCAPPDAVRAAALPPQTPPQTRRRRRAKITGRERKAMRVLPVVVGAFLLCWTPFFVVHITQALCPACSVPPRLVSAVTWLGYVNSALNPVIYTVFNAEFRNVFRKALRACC

Na chan = test: Na channel binding (Ki)
5HT2B = 5HT2B (Homo sapiens, UniProt P41595); test: Functional activity IC50 (5HT2B antagonist); assay type: cell-based
Chain of 5HT2B (P41595 whole entry, species assumed): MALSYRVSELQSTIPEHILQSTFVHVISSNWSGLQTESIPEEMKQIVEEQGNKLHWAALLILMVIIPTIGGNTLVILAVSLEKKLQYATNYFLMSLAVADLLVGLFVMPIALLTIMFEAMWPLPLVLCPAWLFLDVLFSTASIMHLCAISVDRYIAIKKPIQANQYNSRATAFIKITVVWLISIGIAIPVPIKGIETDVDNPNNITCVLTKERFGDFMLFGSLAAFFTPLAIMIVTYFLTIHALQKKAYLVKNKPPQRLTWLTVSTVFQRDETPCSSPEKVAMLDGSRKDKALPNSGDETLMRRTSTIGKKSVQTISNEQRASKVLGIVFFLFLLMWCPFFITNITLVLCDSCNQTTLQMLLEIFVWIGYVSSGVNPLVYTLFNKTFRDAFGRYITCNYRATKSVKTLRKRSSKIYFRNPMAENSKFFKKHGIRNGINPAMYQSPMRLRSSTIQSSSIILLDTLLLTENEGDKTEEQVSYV

IP3 = test: IC50 (IP3); assay type: cell-based
hERG = hERG (Homo sapiens, UniProt Q12809); test: hERG % inhibition at 1 uM
Chain of hERG (Q12809 whole entry): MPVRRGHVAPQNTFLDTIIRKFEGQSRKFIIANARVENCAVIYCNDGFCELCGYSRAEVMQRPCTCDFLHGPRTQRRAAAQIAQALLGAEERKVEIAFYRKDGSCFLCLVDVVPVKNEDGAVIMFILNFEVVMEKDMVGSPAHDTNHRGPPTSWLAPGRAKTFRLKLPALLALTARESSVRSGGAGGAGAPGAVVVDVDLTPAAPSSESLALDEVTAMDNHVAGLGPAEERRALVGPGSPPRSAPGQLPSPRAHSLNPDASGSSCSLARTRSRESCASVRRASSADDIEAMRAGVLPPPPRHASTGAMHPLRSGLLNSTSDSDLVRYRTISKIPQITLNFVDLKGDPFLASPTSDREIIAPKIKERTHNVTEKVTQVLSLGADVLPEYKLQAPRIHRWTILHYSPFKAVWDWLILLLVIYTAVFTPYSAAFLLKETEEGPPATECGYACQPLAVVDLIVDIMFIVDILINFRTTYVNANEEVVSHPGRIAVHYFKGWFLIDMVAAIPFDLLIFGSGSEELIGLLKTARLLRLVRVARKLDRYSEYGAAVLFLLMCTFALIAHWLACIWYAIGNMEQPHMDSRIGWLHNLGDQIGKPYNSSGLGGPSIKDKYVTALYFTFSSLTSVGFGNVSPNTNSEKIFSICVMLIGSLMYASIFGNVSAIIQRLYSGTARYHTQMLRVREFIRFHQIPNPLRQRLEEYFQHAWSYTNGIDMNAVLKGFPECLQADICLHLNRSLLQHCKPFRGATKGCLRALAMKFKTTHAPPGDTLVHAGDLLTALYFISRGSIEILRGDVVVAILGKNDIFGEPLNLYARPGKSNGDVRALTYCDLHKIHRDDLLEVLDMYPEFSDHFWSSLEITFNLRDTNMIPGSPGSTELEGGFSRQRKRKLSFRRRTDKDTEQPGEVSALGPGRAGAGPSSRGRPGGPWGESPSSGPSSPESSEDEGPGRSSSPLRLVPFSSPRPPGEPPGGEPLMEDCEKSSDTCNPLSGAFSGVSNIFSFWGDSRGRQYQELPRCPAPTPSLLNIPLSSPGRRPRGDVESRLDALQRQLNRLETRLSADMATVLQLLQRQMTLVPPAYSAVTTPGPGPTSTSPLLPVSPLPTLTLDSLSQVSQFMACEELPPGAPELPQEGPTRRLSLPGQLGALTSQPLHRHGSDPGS

Rat pK = conditions: in vivo; for bioavailability: read-out: Rat pK: % F
% Protein Binding = assay type: in vitro ADME
AMES Test = assay type: cell-based
D2L = D2L (Homo sapiens, UniProt P14416); test: Functional activity D2L; assay type: cell-based
Chain of D2L (P14416 whole entry): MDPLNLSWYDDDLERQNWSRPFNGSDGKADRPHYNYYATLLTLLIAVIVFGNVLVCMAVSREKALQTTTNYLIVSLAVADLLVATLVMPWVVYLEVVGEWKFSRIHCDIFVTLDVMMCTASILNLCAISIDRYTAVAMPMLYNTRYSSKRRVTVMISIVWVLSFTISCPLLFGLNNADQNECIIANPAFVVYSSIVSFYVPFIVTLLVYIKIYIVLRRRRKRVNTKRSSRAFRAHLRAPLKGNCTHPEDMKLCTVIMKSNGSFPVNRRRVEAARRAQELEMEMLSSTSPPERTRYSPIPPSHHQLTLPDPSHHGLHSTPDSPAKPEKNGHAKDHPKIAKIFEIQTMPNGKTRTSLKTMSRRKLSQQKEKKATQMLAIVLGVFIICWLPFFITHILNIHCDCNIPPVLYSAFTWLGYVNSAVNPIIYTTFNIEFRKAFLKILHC

D2S [4] = biological target: T1, D2S; test: Functional activity D2S; assay type: cell-based
5HT2A [5] = biological target: T3, 5HT2A; test: Functional activity 5HT2A; assay type: cell-based
5HT1A [6] = biological target: T2, 5HT1A; test: Functional activity 5HT1A; assay type: cell-based
D1 = D1 (Homo sapiens, UniProt P21728); test: D1 binding (Ki)
Chain of D1 (P21728 whole entry): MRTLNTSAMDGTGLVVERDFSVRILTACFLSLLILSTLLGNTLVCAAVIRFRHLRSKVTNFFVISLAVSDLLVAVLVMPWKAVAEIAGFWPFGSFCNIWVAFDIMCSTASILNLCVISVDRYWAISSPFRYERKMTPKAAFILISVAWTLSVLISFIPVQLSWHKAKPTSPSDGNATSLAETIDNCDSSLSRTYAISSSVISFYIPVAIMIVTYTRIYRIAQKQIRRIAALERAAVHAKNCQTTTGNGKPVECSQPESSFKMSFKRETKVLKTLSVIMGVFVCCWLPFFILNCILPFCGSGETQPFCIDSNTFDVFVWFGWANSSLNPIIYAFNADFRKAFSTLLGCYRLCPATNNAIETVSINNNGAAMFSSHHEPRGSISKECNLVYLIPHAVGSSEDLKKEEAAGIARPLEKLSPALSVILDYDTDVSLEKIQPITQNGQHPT

Mouse pK = conditions: in vivo
D2 = D2 (Homo sapiens, UniProt P14416); test: Functional activity D2 (agonist / antagonist); assay type: cell-based
Chain of D2 (P14416 whole entry): as the sequence (P14416 whole entry) above

HLM T1/2 = conditions: human, liver microsomes
[7] = iv, read-out: Rat pK: T1/2 (iv)
[8] = po, read-out: Rat pK: T1/2 (po)

T1 sequence (P14416 1-414 isoform P14416-2): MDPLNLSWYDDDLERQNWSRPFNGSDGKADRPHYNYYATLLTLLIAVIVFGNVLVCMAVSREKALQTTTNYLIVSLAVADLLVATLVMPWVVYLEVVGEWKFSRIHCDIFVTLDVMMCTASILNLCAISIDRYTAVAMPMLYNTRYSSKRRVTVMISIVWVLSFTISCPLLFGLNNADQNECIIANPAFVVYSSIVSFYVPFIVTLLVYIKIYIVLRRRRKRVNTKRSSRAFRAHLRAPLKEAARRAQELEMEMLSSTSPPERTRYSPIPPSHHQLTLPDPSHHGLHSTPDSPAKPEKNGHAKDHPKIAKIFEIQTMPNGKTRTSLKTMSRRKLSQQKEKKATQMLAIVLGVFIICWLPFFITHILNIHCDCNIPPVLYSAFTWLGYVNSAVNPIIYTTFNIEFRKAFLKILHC
Chain of D3 (P35462 whole entry): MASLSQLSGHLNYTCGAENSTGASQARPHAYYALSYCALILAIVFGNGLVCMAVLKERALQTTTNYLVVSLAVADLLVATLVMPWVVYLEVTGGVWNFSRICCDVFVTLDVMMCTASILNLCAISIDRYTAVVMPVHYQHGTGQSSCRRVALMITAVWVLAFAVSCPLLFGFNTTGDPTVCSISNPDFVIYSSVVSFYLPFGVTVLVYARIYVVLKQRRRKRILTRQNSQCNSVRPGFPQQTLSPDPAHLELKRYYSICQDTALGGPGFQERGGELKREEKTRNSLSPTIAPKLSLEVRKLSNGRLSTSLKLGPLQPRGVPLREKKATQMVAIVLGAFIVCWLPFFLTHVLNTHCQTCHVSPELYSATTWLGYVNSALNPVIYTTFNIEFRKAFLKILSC

| Structure (SMILES) | Ki (D3) | Ki (5HT1A [2]) | Ki (s 1) | Ki (D4.4) | Ki (Na chan) | IC50 (5HT2B) | IC50 (IP3) | hERG (% Inhibition at 1 uM) (hERG) | half-life (Rat pK; [7]) | bioavailability (Rat pK; po) | half-life (Rat pK; [8]) | fraction unbound (% Protein Binding) | AMES Test (AMES Test) | other results |
| --- | --- | --- | --- | --- | --- | --- | --- | --- | --- | --- | --- | --- | --- | --- |
| Fc1cccc(CN2CCC(Nc3ncnc4sc(Cl)cc34)CC2)c1.O=C(O)/C=C\C(=O)O [Example B42, N-(1-(3-fluorobenzyl)piperidin-4-yl)-6-chlorothieno[2,3-d]pyrimidin-4-amine, monomaleate] | 26 nM | 17 nM | 6.7 nM | 4.7 nM | 250 nM | 110 nM | 1.7 nM | 50.1% | 24 min | 22.4% | 72 min | 0.017 | Negative | Ki (D2S [1]; NA: Not Active): 170 nM; Ki (5HT2A [3]): 52 nM; IC50 (D2L): 162 nM; IC50 (D2S [4]): 292 nM; IC50 (5HT2A [5]): 340 nM; Functional Activity IC50 (5HT1A) (5HT1A [6]): Not Active |
| N#Cc1cccc(CN2CCC(Nc3ncnc4sc(Cl)cc34)CC2)c1 [Example B43, 3-((4-(6-chlorothieno [2,3-d]pyrimidin-4-ylamino)piperidin-1-yl)methyl) benzonitrile, monomaleate] | 1300 nM | 280 nM | 11 nM | 25 nM | 970 nM | 17.5 nM | 1.48 nM | 47.3% | 44.4 min | 17.2% | 91.8 min | 0.018 | Negative | Ki (D2S [1]): 1000 nM; Ki (D1): 1200 nM; bioavailability (Mouse pK; ip, read-out: Mouse pK: % F): 87%; half-life (Mouse pK; ip, read-out: Mouse pK: T1/2 (ip)): 30 min; half-life (Mouse pK; iv, read-out: Mouse pK: T1/2 (iv)): 26 min; EC50 (D2; agonist): 920 nM; IC50 (D2) (D2; antagonist): No antagonist activity; half-life (HLM T1/2): 22 min |
